{"source": "patent US20210219542A1", "about": "“COMPOSITIONS AND METHODS FOR STORAGE OF RED BLOOD CELLS” (THE REGENTS OF THE UNIVERSITY OF COLORADO, A BODY CORPORATE, priority 2018, published 2021)", "key": {"[1]": {"tested_on": "red blood cells (RBC)", "test": "RBC storage in AS-3 with Ado and/or S1P, LC-MS metabolomics of cells and supernatants", "type": "cell-based", "conditions": "for amount of hypoxanthine in RBC and supernatants / 2,3-DPG levels / ATP production / oxidized glutathione levels / reduced glutathione levels: RBC-AS-3 stored at 4° C.; for amount of hypoxanthine in RBC and supernatants: at least up to a concentration less than 100 μM, at which point Ado becomes a substrate for hypoxanthine production, FIG. 5; for 2,3-DPG levels: first two weeks of storage, FIG. 2; for ATP production: first week of storage, FIG. 3; for oxidized glutathione levels / reduced glutathione levels: supplemented conditions, FIG. 4; for glycolytic activity as measured by the lactate-to-glucose ratio: RBC-AS-3 suspension stored at 4° C., Ado 0.1-100 μM or S1P 1-10 μM or both, versus unsupplemented storage, FIG. 1", "protocol": "RBC Storage: To ensure sterility, all storage conditions were set up and subsequently sampled in a biosafety cabinet. The RBC-AS-3 suspension was carefully removed from the bag into 3 ml aliquots inside 15 ml conical tubes. Stock concentrations (formulated in house-made AS-3) of ^13C5-Ado or d7-S1P were diluted to final concentrations of 0.1, 1, 10, and 100 μM for Ado or 1, 5, and 10 μM for S1P. Also included was a storage condition consisting of 10 Ado+5 μM S1P. […] The tubes were gently mixed and placed at 4° C. for storage. On days 2, 8, 11, 15, 22, 29, and 43, the tubes were placed back in a biosafety cabinet and 300 μl were sampled. The tubes were placed back at 4° C., and the samples were centrifuged for 10 minutes at 1500 g, 4° C. Supernatants were separated from cells and frozen until analysis (1st analysis after day 22 sampling). LC-MS Metabolomics: Metabolomics analyses were performed as previously described (Nemkov et al. (2015) Amino Acids doi:10.1007/s00726-015-2019-9; Nemkov et al. (2017) Rapid Commun. Mass Spectrom. 31, 663-673). Briefly, samples were placed on ice and diluted with 9 volumes of methanol:acetonitrile:water (5:3:2, v:v) for RBC, or with 24 volumes of methanol:acetonitrile:water (5:3:2, v:v) for supernatants. Suspensions were vortexed continuously for 30 min at 4° C. Insoluble material was removed by centrifugation at 18,000 g for 10 min at 4° C. and supernatants were isolated for metabolomics analysis by UHPLC-MS. The analytical platform employed a Vanquish UHPLC system (Thermo Fisher Scientific, San Jose, Calif., USA) coupled online to a Q Exactive mass spectrometer (Thermo Fisher Scientific, San Jose, Calif., USA). Samples were resolved over a Kinetex C18 column, 2.1×150 mm, 1.7 μm particle size (Phenomenex, Torrance, Calif., USA) equipped with a guard column (SecurityGuard™ Ultracartridge—UHPLC C18 for 2.1 mm ID Columns—AJO-8782—Phenomenex, Torrance, Calif., USA) using an aqueous phase (A) of water and 0.1% formic acid and a mobile phase (B) of acetonitrile and 0.1% formic acid for positive ion polarity mode, or an aqueous phase (A) of 5% acetonitrile and 1 mM ammonium acetate in water and a mobile phase (B) of 95% acetonitrile and 1 mM ammonium acetate in water for negative ion polarity mode. Samples were eluted from the column using a gradient from 5% to 95% B over 1.6 minutes, followed by an isocratic hold at 95% B for 1.65 minutes, flowed at 450 μl/min and 40° C. The Q Exactive mass spectrometer (Thermo Fisher Scientific, San Jose, Calif., USA) was operated independently in positive or negative ion mode, scanning in Full MS mode (2 μscans) from 60 to 900 m/z at 70,000 resolution, with 4 kV spray voltage, 15 shealth gas, 5 auxiliary gas. Calibration was performed prior to analysis using the Pierce™ Positive and Negative Ion Calibration Solutions (Thermo Fisher Scientific). Acquired data was then converted from .raw to .mzXML file format using Mass Matrix (Cleveland, Ohio, USA). Samples were analyzed in randomized order with a technical mixture injected after every 15 samples to qualify instrument performance. Metabolite assignments, isotopologue distributions, and correction for expected natural abundances of deuterium, ^13C, and ^15N isotopes were performed using MAVEN (Princeton, N.J., USA). The Q Exactive mass spectrometer (Thermo Fisher Scientific, San Jose, Calif., USA) was operated independently in positive or negative ion mode, scanning in Full MS mode (2 μscans) from 60 to 900 m/z at 70,000 resolution, with 4 kV spray voltage, 15 shealth gas, 5 auxiliary gas. Calibration was performed prior to analysis using the Pierce™ Positive and Negative Ion Calibration Solutions (Thermo Fisher Scientific). Acquired data was then converted from .raw to .mzXML file format using Mass Matrix (Cleveland, Ohio, USA). […] Importantly, the use of a standard processed blood unit is an improvement over previous experiments as this material directly represents a realistic storage strategy."}, "[2]": {"tested_on": "red blood cells (RBC)", "test": "Storage hemolysis: phosphate-conjugated carbohydrates and adenylates in the supernatant fraction of stored RBCs", "type": "cell-based", "conditions": "RBC-AS-3 stored at 4° C.; over storage duration; FIG. 6", "protocol": "RBC Storage: To ensure sterility, all storage conditions were set up and subsequently sampled in a biosafety cabinet. The RBC-AS-3 suspension was carefully removed from the bag into 3 ml aliquots inside 15 ml conical tubes. Stock concentrations (formulated in house-made AS-3) of ^13C5-Ado or d7-S1P were diluted to final concentrations of 0.1, 1, 10, and 100 μM for Ado or 1, 5, and 10 μM for S1P. Also included was a storage condition consisting of 10 Ado+5 μM S1P. […] The tubes were gently mixed and placed at 4° C. for storage. On days 2, 8, 11, 15, 22, 29, and 43, the tubes were placed back in a biosafety cabinet and 300 μl were sampled. The tubes were placed back at 4° C., and the samples were centrifuged for 10 minutes at 1500 g, 4° C. Supernatants were separated from cells and frozen until analysis (1st analysis after day 22 sampling). LC-MS Metabolomics: Metabolomics analyses were performed as previously described (Nemkov et al. (2015) Amino Acids doi:10.1007/s00726-015-2019-9; Nemkov et al. (2017) Rapid Commun. Mass Spectrom. 31, 663-673). Briefly, samples were placed on ice and diluted with 9 volumes of methanol:acetonitrile:water (5:3:2, v:v) for RBC, or with 24 volumes of methanol:acetonitrile:water (5:3:2, v:v) for supernatants. […] Samples were analyzed in randomized order with a technical mixture injected after every 15 samples to qualify instrument performance. […]"}}, "data": [{"compound": "Nc1ncnc2c1ncn2[C@@H]1O[C@H](CO)[C@@H](O)[C@H]1O", "note": "[Ado, adenosine]", "values": [{"measurement": "amount of hypoxanthine in RBC and supernatants", "setting": "[1]", "result": "markedly decreased"}, {"measurement": "2,3-DPG levels", "setting": "[1]", "result": "higher 2,3-DPG levels through the first two weeks of storage"}, {"measurement": "ATP production", "setting": "[1]", "result": "improved ATP production through the first week of storage"}, {"measurement": "oxidized glutathione levels", "setting": "[1]", "result": "lower"}, {"measurement": "reduced glutathione levels", "setting": "[1]", "result": "increased"}, {"measurement": "glycolytic activity as measured by the lactate-to-glucose ratio", "setting": "[1]", "result": "higher glycolytic activity"}, {"measurement": "levels of phosphate-conjugated carbohydrates and adenylates in supernatants (indicative of hemolysis)", "setting": "[2]", "result": "significantly lower"}]}, {"compound": "CCCCCCCCCCCCC/C=C/[C@@H](O)[C@@H](N)COP(=O)(O)O", "note": "[S1P, sphingosine 1-phosphate]", "values": [{"measurement": "amount of hypoxanthine in RBC and supernatants", "setting": "[1]", "result": "markedly decreased"}, {"measurement": "2,3-DPG levels", "setting": "[1]", "result": "higher 2,3-DPG levels through the first two weeks of storage"}, {"measurement": "ATP production", "setting": "[1]", "result": "improved ATP production through the first week of storage"}, {"measurement": "oxidized glutathione levels", "setting": "[1]", "result": "lower"}, {"measurement": "reduced glutathione levels", "setting": "[1]", "result": "increased"}, {"measurement": "glycolytic activity as measured by the lactate-to-glucose ratio", "setting": "[1]", "result": "higher glycolytic activity"}, {"measurement": "levels of phosphate-conjugated carbohydrates and adenylates in supernatants (indicative of hemolysis)", "setting": "[2]", "result": "significantly lower"}]}]}
